For experiment [1] the following is noted: Photaki synthesis: 1,2-diiodoethane disulfide formation, HBr/AcOH deprotection, purified product; cited from earlier work.
Experiment [2] can be described thus: Biological value of the pure oxytocin product by the content determination method of the European Pharmacopoeia. The settings on record: pure oxytocin from the liquid-phase synthesis; European Pharmacopoeia (version 8.0) content determination method, European Pharmacopoeia standards as standard materials; water and acetic acid removed. From the text:
In order to solve the problems existing in the present oxytocin synthesis technology, the invention provides a liquid-phase synthesis technique of oxytocin characterized by high productivity, low cost, safe environment, mild reaction conditions, high level of purity and biological value and great possibility for industrial production. The pure product of oxytocin provided by the invention has a content of 98.1% and a biological value of 588 IU/mg measured by the content determination method according to the European Pharmacopoeia (version 8.0).
Liquid contained oxytocin with purity above 99% is collected, concentrated at 25° C., desalted by PS polymer, concentrated, and freeze-dried to obtain the pure product of oxytocin (the HPLC image is shown in the attached drawings). The pure product of oxytocin provided by the invention has a content of 98.1% and a biological value of 588 IU/mg measured by the content determination method according to the European Pharmacopoeia, with the European Pharmacopoeia standards used as the standard materials. […]

We go through one compound from patent publication US20200002382A1, “Method for manufacturing oxytocin by liquid-phase polypeptide synthesis” (LANZHOU KAIBO PHARMACEUTICAL CO., LTD., priority 2017, published 2020).

Read-outs that look alike come from different tables or passages of the source.

`CC[C@H](C)[C@@H]1NC(=O)[C@H](Cc2ccc(O)cc2)NC(=O)[C@@H](N)CSSC[C@@H](C(=O)N2CCC[C@H]2C(=O)N[C@@H](CC(C)C)C(=O)NCC(N)=O)NC(=O)[C@H](CC(N)=O)NC(=O)[C@H](CCC(N)=O)NC1=O` [oxytocin, Oxytocin]: the figures for the biological value in experiment [1] and in experiment [2] were 380 IU/mg and 588 IU/mg, respectively.
